Calls of active or inactive are those of the source.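 How the source made its calls: active means maximal inhibition of USP17 at or above 30% in the confirmation dose-response, a value not among the printed readouts; inactive means the rest.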 A value given as a limit tells only on which side of the number the result lay.

Ubiquitin carboxyl-terminal hydrolase 17-like protein 5 (Homo sapiens), sequence (A8MUK1 whole entry, looked up): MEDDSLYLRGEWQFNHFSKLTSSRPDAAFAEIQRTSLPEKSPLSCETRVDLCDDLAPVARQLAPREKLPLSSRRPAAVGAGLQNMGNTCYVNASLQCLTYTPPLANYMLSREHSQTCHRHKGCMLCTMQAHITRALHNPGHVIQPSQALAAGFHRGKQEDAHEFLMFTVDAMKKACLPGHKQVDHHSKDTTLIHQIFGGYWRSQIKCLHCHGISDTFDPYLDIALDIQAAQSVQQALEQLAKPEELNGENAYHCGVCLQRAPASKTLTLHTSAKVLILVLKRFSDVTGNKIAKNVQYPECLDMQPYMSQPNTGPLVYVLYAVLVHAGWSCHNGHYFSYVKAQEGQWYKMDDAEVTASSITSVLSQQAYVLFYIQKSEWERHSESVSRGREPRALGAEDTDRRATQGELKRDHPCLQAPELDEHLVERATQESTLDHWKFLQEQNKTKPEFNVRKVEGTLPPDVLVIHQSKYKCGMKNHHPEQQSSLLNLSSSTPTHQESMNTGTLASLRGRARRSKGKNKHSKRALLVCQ

The assay concerns the target Ubiquitin carboxyl-terminal hydrolase 17-like protein 5 (Homo sapiens) (UniProt A8MUK1). The assay is described as follows: ubiquitin-specific protease 17 DUB inhibitors, concentration-effect assay, cell-free, verification of initial screening actives (AID 1645864). As to conditions: purified USP17, ubiquitin-rhodamine cleavage fluorescence, 3 h.
One may read the IC50 as the point on the concentration scale where inhibition reaches its midpoint. Regarding `COc1ccc(CNC(=O)CN2C(=O)C(C)=C(c3ccc(C)cc3)S2(=O)=O)cc1`, the IC50 is > 50 µM (inactive).

With `O=c1c(S(=O)(=O)c2cc(F)cc(F)c2)c[nH]c2cc(Cl)ccc12`, the IC50 was 23.8 µM.

In the case of `Cc1ccc2c(=O)c3c([nH]c2c1C)CCN(CC(=O)NCc1ccc2c(c1)OCO2)C3`, the IC50 was 32.8 µM.

Regarding `O=C(c1ccc2ncccc2c1)N1CCC2(C1)Nc1cccnc1NC2=NC1CCCC1` (configuration not stated), the IC50 is > 50 µM (inactive).

In the case of `CCc1nnc(NC(=O)c2nnn(-c3ccccc3Cl)c2C)s1`, the IC50 is > 50 µM (inactive).

Turning to `CO[C@H]1/C=C/OC2(C)Oc3c(C)c(O)c4c(c3C2=O)C2(C=C(NC(=O)/C(C)=C\C=C\[C@H](C)[C@H](O)[C@@H](C)[C@@H](O)[C@@H](C)[C@H](OC(C)=O)C1C)C4=O)OCC(=O)O2` (some centres not stated), the IC50 was 42.6 µM.

For `Clc1cncc(Oc2nc(-c3cccnc3)nc3ccccc23)c1`, the IC50 is 3.31 µM.

In the case of `O=S(=O)(c1ccc(F)cc1)N1CCCC1c1ccnc(Nc2cnccn2)n1` (configuration not stated), the IC50 is > 50 µM (inactive).

Consider `CCOc1ccc(-n2c(SCC(=O)N3CC(=O)Nc4ccccc43)nnc2-c2ccc(OC)cc2)cc1`, for which the IC50 was 42.5 µM.

With `CSc1nccc(-c2ccc(F)cc2)c1C#N`, the half-maximal inhibitory concentration (IC50) was 20.7 µM.

For `COC(=O)c1ccc2c(=O)n(CCCCCC(=O)NCCc3ccc(S(N)(=O)=O)cc3)c(=O)[nH]c2c1`, the IC50 is 5.08 µM.

For `COCC(C)Nc1ncc(-c2cnccn2)c(-c2ccc(C)s2)n1` (configuration not stated), the IC50 was > 50 µM (inactive).

For the compound `CCOc1cc(C2C3=C(CC(C)(C)CC3=O)Nc3onc(C)c32)ccc1O` (configuration not stated), the IC50 is 39.7 µM.

On to `Cc1ccc(C(=O)NCC(=O)Nc2nc3ccccc3[nH]2)c(C)c1`, for which the IC50 is 30.7 µM.

Take `Cc1c(-c2nn3c(-c4ccco4)nnc3s2)cccc1[N+](=O)[O-]`: the IC50 is 3 µM.

For `COc1ccc(NC(=O)c2sc(N3CCOCC3)nc2-c2ccccc2)c(OC)c1`, the IC50 was 27.7 µM.

Take `COc1ccc(-c2[nH]c3ccccc3c2SCCNC(=O)c2ccc(S(=O)(=O)N3CCOCC3)cc2)cc1`: the IC50 is 37.4 µM.

Regarding `O=C(Oc1ccc(-c2cnc3ccccc3n2)cc1)c1ccc(F)cc1`, the IC50 is 6.4 µM.

Turning to `CCc1ccc2c(c1)[C@]1(C(=O)N2)[C@@H]2C(=O)N(c3ccc(Cl)cc3Cl)C(=O)[C@@H]2[C@@H]2CCCN21`, the IC50 is > 50 µM (inactive).

For the compound `CC(=O)c1ccc(NC(=O)c2nc3ccccc3nc2N2CCOCC2)cc1`, the IC50 was > 50 µM (inactive).

Regarding `CC[C@H](C)[C@H](NC(=O)[C@H]([C@@H](C)CC)N(C)C(C)=O)C(=O)N[C@H](C(=O)N[C@@H](CC(C)C)C(=O)C1(C)CO1)[C@@H](C)O` (some centres not stated), the IC50 is > 50 µM (inactive).

As for `Cc1nc(-c2cccc(NC(=O)c3ccccc3Cl)c2)no1`, the IC50 is > 50 µM (inactive).

With `COC(=O)COc1ccc(/C=N/NC(=O)c2ccc(CN3CCc4ccccc4C3)cc2)cc1`, the IC50 was 14.5 µM.

As to `Cc1cc(C)n(-c2ccc(C(=O)Nc3cccc(S(=O)(=O)N4CCCC4)c3)cc2)n1`, the IC50 was 23 µM.

For the compound `Cc1ccc(S(=O)(=O)N2CCC3(CC2)NC(=O)c2ccccc2N3)c(C)c1`, the 50% inhibitory concentration (IC50) is 17.9 µM.

As to `Cc1cccc(CNC(=O)c2ccc(-c3nnc(-c4cccc(C)c4)o3)cc2)c1`, the IC50 is 5.03 µM.

For `COC(=O)CC1CC23OC2(C(=O)c2c(O)cccc2C3=O)C(C)O1` (configuration not stated), the IC50 was 0.161 µM.

For the compound `O=C(O)C1CCN(Cc2c(-c3ccco3)nc3ccc(Cl)cn23)CC1`, the IC50 was > 50 µM (inactive).

For `O=C(NC(Cc1ccccc1)c1nc2ccccc2[nH]1)C1CC1` (configuration not stated), the IC50 is 49.7 µM.

For `Cc1ccc(C)c(-c2cc3c(=O)n(Cc4noc(CN5CCCCC5)n4)ccn3n2)c1`, the IC50 was > 50 µM (inactive).

Consider `O=C(Nc1ccc(-c2cn3ccsc3n2)cc1)c1ccc(Cl)c([N+](=O)[O-])c1`, for which the IC50 is 1.17 µM.

In the case of `Fc1cccc(-n2cc(-c3noc(-c4ccccn4)n3)nn2)c1`, the IC50 is 30.1 µM.

On to `CC(C(=O)NCc1ccc(F)cc1)n1cccc1C(=O)c1ccccc1` (configuration not stated), for which the IC50 was > 50 µM (inactive).

In the case of `c1ccc(-n2nnc(-c3noc(-c4ccccn4)n3)c2-c2ccncc2)cc1`, the IC50 is 46.6 µM.

As for `CS(=O)(=O)n1nc(NCc2ccc(F)cc2)nc1NCc1ccc(F)cc1`, the IC50 was > 50 µM (inactive).

In the case of `CC(C)CC(=O)Nc1cc(F)c2nc(N3CCOCC3)ccc2c1`, the IC50 was 5.95 µM.

As to `COc1cc(Cn2cnc3c([nH]c4ccc(Br)cc43)c2=O)cc(OC)c1`, the IC50 was 3.75 µM.

For the compound `COc1ccc(Nc2nc(C(=O)NCc3ccc4c(c3)OCO4)cc3occc23)cc1`, the IC50 was 10.7 µM.

Take `Fc1ccccc1N1CCN(c2ncc3c(n2)CCN(Cc2ccccn2)C3)CC1`: the IC50 was 43 µM.

As for `CNS(=O)(=O)c1ccc(CNC(=O)c2cc(-c3ccc(C)cc3)no2)cc1`, the IC50 is 20.2 µM.

Regarding `COc1cccc(N2C(=O)N(CC(=O)NCc3ccc(Cl)cc3)c3ccccc3S2(=O)=O)c1`, the IC50 was 19.1 µM.

`CCn1cc(-c2nc(-c3ccccc3)no2)c(=O)c2cc(F)ccc21`: the IC50 is 2.34 µM.

In the case of `Cc1ccc2c(c1)[C@]1(C(=O)N2)[C@@H](C(=O)c2ccccc2)[C@]2(C(=O)Nc3ccccc32)[C@@H]2CCCN21`, the IC50 was 32 µM.

In the case of `COc1ccc(-c2nc(Cn3nnc(C(=O)Nc4ccc(C)c(C)c4)c3N)c(C)o2)cc1`, the IC50 is 2.24 µM.

Turning to `O=C(NCc1ccc2c(c1)OCO2)c1cc(-c2cc(Cl)ccc2O)n[nH]1`, the IC50 was 3.15 µM.

`O=S(=O)(c1ccccc1)N1CCN2Cc3ccccc3N(Cc3ccccc3)CC2C1` (configuration not stated): the IC50 is > 50 µM (inactive).

`CO/C=C/C(=O)c1cc2cnc3c(=N)cc(NC(C)=O)c([nH]1)c23`: the IC50 is > 50 µM (inactive).

In the case of `COc1ccc(NC(=O)c2nnn(-c3ccccc3C)c2C)cc1OC`, the IC50 was > 50 µM (inactive).

For `CCOC(=O)c1nc(Nc2ccc(OC)c(Cl)c2)c2ccccc2n1`, the IC50 is 25.3 µM.

With `CCOCCCn1c(SCC(=O)Nc2ccccc2C(F)(F)F)nc2ccccc2c1=O`, the IC50 is 20.9 µM.

Take `COc1cccc(NC(=O)c2ccc3noc(-c4ccc(Cl)cc4)c3c2)c1`: the IC50 was 37.4 µM.

`O=C(c1cc(Cl)ccc1Cl)N1CCN(c2ccc3nnc(-c4ccco4)n3n2)CC1`: the IC50 is > 50 µM (inactive).

On to `CN1CC2CN(C(=O)Nc3cccnc3)CCN2Cc2ccccc21` (configuration not stated), for which the IC50 was > 50 µM (inactive).

On to `O=C1NCCCC1Cc1ccc(-c2cccc(C(=O)N3CCc4ccccc4C3)c2)cc1` (configuration not stated), for which the IC50 is 38.2 µM.

Regarding `O=C(COC(=O)c1ccc2ncsc2c1)Nc1ccccc1F`, the IC50 was > 50 µM (inactive).

As to `O=c1c2cnc(N3CCCCC3)nc2ccn1CCc1ccccc1`, the IC50 was 1.87 µM.

Take `O=C(NCc1cccc(NC(=O)C2CC2)c1)Nc1cccc2ccccc12`: the IC50 is 39.7 µM.

Take `CSc1cccc(NC(=O)CCc2ccc3nc(NC(C)=O)sc3c2)c1`: the IC50 was > 50 µM (inactive).

As for `Cc1cccc(-n2nc(C)c3c2NC(=O)CC3C(=O)c2cc3ccccc3o2)c1` (configuration not stated), the IC50 was 34.1 µM.

Take `COc1ccc(CCNC(=O)c2ccc3ccccc3c2)cc1OC`: the IC50 is > 50 µM (inactive).

On to `O=C1C/C(=C\c2cccc(Cl)c2)Cc2ccccc21`, for which the IC50 was > 50 µM (inactive).

For `O=S(=O)(c1cccc(F)c1)N1CCc2nc3ccccc3n2CC1`, the IC50 was 3.12 µM.

For `COc1ccccc1NC(=O)Cn1cc(C(=O)c2ccc(C)cc2)c(=O)c2cc(Cl)ccc21`, the IC50 is 16.6 µM.

For `Cc1ccccc1NC(=O)Nc1ccccc1OCc1cc(=O)n2cccc(C)c2n1`, the IC50 was 0.663 µM.

Turning to `COc1cc2c(cc1NC(=O)c1ccc(-n3cnnn3)cc1)oc1ccccc12`, the IC50 is 0.691 µM.

`O=C(Nc1ccc2c(c1)OCCO2)c1cccc2nc3ccccc3nc12`: the IC50 is 2.51 µM.

As to `O=c1[nH]c(C2CCN(S(=O)(=O)c3ccc(S(=O)(=O)NC4CCCCC4)cc3)CC2)nc2c1nnn2Cc1c(Cl)cccc1Cl`, the IC50 was 9.15 µM.

Turning to `CC(C)N1CC[C@@H]2[C@H](C1)CN2C(=O)Nc1cccc(F)c1`, the IC50 was > 50 µM (inactive).

Take `CN1CCN(C(=O)c2ccn(-c3ccc4ccc(-c5cnn(C)c5)cn34)n2)CC1`: the IC50 is > 50 µM (inactive).

`CS(=O)(=O)NC1CCCN(C(=O)Nc2cccc3ccccc23)C1` (configuration not stated): the IC50 was 17.3 µM.

Consider `O=C1Cc2ccccc2C(=O)N1c1ccc2c(c1)OCO2`, for which the IC50 is 22.6 µM.

Regarding `COc1ccc(S(=O)(=O)Nc2ccc(Nc3ccc(-n4cccn4)nn3)cc2)cc1`, the IC50 is 44.9 µM.

Regarding `Cc1ccc2cccc(OCc3nnc(SCC(=O)c4ccc(Cl)cc4)n3C)c2n1`, the IC50 was 2.65 µM.

Consider `O=S(=O)(c1ccc2c(c1)OCCO2)N(Cc1ccccc1)Cc1nnc(-c2ccccc2)o1`, for which the IC50 was > 50 µM (inactive).

Take `CNC(=O)c1cc2c(=O)n3cccc(C)c3nc2n1Cc1ccccc1`: the IC50 is 2.36 µM.

For the compound `Cc1nn(C)c2c1[C@@H](c1ccc(F)cc1)[C@H](NC(=O)c1ccccc1)C(=O)N2`, the IC50 is > 50 µM (inactive).

Take `COc1ccc(/C=C\c2nccc3c2[nH]c2ccccc23)cc1`: the IC50 was > 50 µM (inactive).

For the compound `Cc1ncncc1C(=O)N1CCCC(C)(c2ncc(Cc3cccc(F)c3)o2)C1` (configuration not stated), the IC50 was > 50 µM (inactive).

Take `Nc1c(C(=O)c2cccs2)oc2nc(-c3ccccc3)cc(-c3ccco3)c12`: the IC50 is > 50 µM (inactive).

For `CCOC(=O)c1ccc(-n2c(=O)c(C#N)cc3c(=O)n4ccccc4nc32)cc1`, the IC50 was > 50 µM (inactive).

Consider `Cc1ccc2[nH]c3c(=O)n(CC4CCCO4)cnc3c2c1` (configuration not stated), for which the IC50 is 21.5 µM.

In the case of `COc1ccc(CNC(=O)Nc2cccc3ccccc23)cc1`, the IC50 was 9.93 µM.

As for `COc1ccc(NC(=O)c2ccc(-n3nnnc3SC)cc2)cc1Cl`, the IC50 was > 50 µM (inactive).

In the case of `Cc1ccc(CNC(=O)c2cccc(N3C(=O)N4CCc5c([nH]c6ccccc56)[C@@]4(C)C3=O)c2)cc1`, the IC50 is 23.1 µM.

As to `CC(=O)N1CCc2cc(S(=O)(=O)NCCC(=O)Nc3cccc(C)c3C)ccc21`, the IC50 was 23.7 µM.

Turning to `CCC(=O)N1c2ccccc2NC2=C(C(=O)CC(c3ccccc3OCc3ccccc3)C2)C1c1ccccc1` (configuration not stated), the IC50 was 4.4 µM.

As to `COc1cc(NC(=O)Cn2nc(-c3ccc(F)cc3)ccc2=O)ccc1-n1cnnn1`, the IC50 is 1.9 µM.

The values above are taken from PubChem BioAssay AID1645864 (Buhrlage Lab, Dana-Farber Cancer Institute and Novartis …, 2021).
